Test results reported in patent US20260266837A1, “Methods for Cancer Recurrence Detection and Treatment Thereof” (Institut Curie, priority 2022, published 2026).
One block for each compound: values may come before it.

Assays:
[1] = tested on: MDA-MB-468 untreated and chemoresistant cells; experiment: XTT cell cytotoxicity, IC50 to 5-FU; format: cell-based, human; details: resistant cells after over 15 weeks of 5-FU, 72 h XTT
Method: MDA-MB-468 untreated and chemoresistant cells were plated in 96 multi-well plates at a density of 10,000 cells per well and treated with increased concentration of 5-FU (1 μM to 0.5M) for 72 h. Cell cytotoxicity was assayed with XTT kit (Sigma, Ref: 11465015001) and IC 50 was calculated as the concentration of 5-FU that is required to obtain 50% of cell viability (Extended FIG. 2b).

MDA-MB-468 [2] = experiment: Prolonged 5-FU treatment, cell proliferation and survival; format: cell-based, human
Method: (§1) Cell lines, culture conditions and drug treatments. MDA-MB-468 cells were cultured in DMEM (Gibco-BRL, Ref: 11966025), supplemented with 10% heat-inactivated fetal calf serum (Gibco-BRL, Ref: 10270-106). HCC38 and BT20 cell lines were cultured in RPMI 1640 (Gibco-BRL, Ref: 11875085), supplemented with 10% heat-inactivated fetal calf serum. […] Cells were treated with 5 μM of 5-FU (Sigma, Ref: F6627) alone or in combination with KDM6A/Bi or EZH2i for indicated days. For EZH2i, cells were pretreated with UNC 1999, UNC 2400 or GSK 126 for 10 days before the addition of 5-FU for an additional 21 days (FIG. 4 and Extended FIG. 8).

[3] = tested on: patient-derived xenograft (PDX) models PDX_95, PDX_39 & PDX_172 established from patients with residual TNBC; experiment: Capecitabine treatment of TNBC patient-derived xenograft models; format: in vivo, mice; details: oral Capecitabine
From the text: Patient samples and PDX models. Patient samples used in this study (n=9) originated from patient treated at Institut Curie with residual triple-negative breast cancers post-neoadjuvant chemotherapy, who gave informed consent for the profiling. In this study, we used three xenograft models generated from three different residual triple-negative breast cancers post-neoadjuvant chemotherapy (HBCx95 called PDX_95, HBCx39 called PDX_39 and HBCx172 called PDX_172 in the manuscript, see Extended Table2) established previously at Curie Institute with informed consent from the patient^46,47. Female Swiss nude mice were purchased from Charles River Laboratories and maintained under specific-pathogen-free conditions. Mouse care and housing were in accordance with institutional guidelines and the rules of the French Ethics Committee (project authorization no. 02163.02).
FIG. 1b: Five mice were not treated and kept as controls (termed “untreated”) and twenty-seven mice were treated orally with Capecitabine (Xeloda; Roche Laboratories) at a dose of 540 mg/kg, 5 d/week for 6 to 14 weeks. Relative tumor volumes (mm3) were measured as described previously^18. Eight mice were sacrificed after the first round of chemotherapy to study “residual” tumors (2 mice) or “persister” (6 mice) human tumor cells. […]

MDA-MB-468 cells = experiment: Lineage barcode frequencies and diversity under 5-FU with EZH2i; format: cell-based, human; details: co-treatment with 5-FU, bulk lineage barcodes
From the text: Lentivirus packaging and cell transduction. Lentivirus was produced by transfecting the barcode plasmids pRRL-CMV-GFP-BCv2Ascl and p8.9-QV and pVSVG into HEK293T cells as previously described^30. MDA-MB-468 cells from ATCC were infected at passage 11 with lentivirus produced from the barcode library (pRRL-CMV-GFP-BCv 2Ascl) which includes 18206 different barcodes of 20 bp of a random stretch, at a low multiplicity of infection (MOI 0.1) to minimize the number of cells marked by multiple barcodes. Three weeks after transduction, cells were sorted for GFP expression to select cells with barcode insertion, and used for drug treatment.
Bulk lineage barcode library preparation and sequencing. Lineage barcodes are recovered by isolating genomic DNA from cells of interest (NucleoSpin Tissue, Mini kit for DNA from cells and tissue, Macherey Nagel, Ref: 740952.50). From the isolated genomic DNA, barcodes are amplified with three nested PCR steps as decribed in^30 (see Extended Table 1 for primer sequence). In short, after a first specific PCR for the common region of the lineage barcodes, the amplified material was prepared for sequencing by addition of the illumina sequencing adaptaters and indexing and purification. Sequencing was done in order to obtain 50 reads, on average, per barcoded cell.
Single-cell lineage barcode extraction from 10× datasets. […] To avoid running scripts on all reads we: 1. used samtools to extract all unmapped reads from the 10× output bam file, 2. used awk to take reads with either a 3′ or 5′ 20 bp match to the constant flanking region of the barcode allowing one mismatch, 3. retained only reads with both a 10× cell barcode and 10× UMI. We then located the 20 bp match to one of the constant flanking regions allowing one mismatch (but filtered out reads where a mismatch was in the first or last base to ensure the barcode is at the expected position). We then further required a 4 bp exact match on the other side of the barcode, and then extracted the 20 bp viral barcode, read name, 10× cell barcode and 10× UMI.
To assign one viral barcode to each 10× cell barcode, we determined a consensus viral barcode for each UMI. For each position in the barcode we returned the most frequently observed base and the proportion of reads supporting this consensus. Barcodes associated with a 10× CB-UMI pair were filtered if the proportion of reads supporting a position was ≤0.5 at ≥3 positions. […]
Bulk barcode pre-processing. […] In brief, using R-3.4.0 (R Development Core Team (2019) http://www.R-project.org), raw reads were first filtered for perfect to the input index-and common-sequences using XCALIBR (https://github.com/NKI-GCF/xcalibr) and filtered against the barcode reference list. […]

[4] = tested on: MDA-MB-468, BT20 and HCC38; experiment: Number of persister cells after EZH2i pre-treatment and 5-FU; format: cell-based, human; details: 10 days pre-treatment, then 5-FU for 21 days
Method: Cell lines, culture conditions and drug treatments. […] All cell lines were cultured in a humidified 5% CO2 atmosphere at 37° C., and were tested as mycoplasma negative. […] Cells were treated with 5 μM of 5-FU (Sigma, Ref: […]) alone or in combination with KDM6A/Bi or EZH2i for indicated days. […] Cell proliferation, doubling time and IC50. MDA-MB-468, HCC38 and BT20 cells were stained with Trypan Blue (Invitrogen, Ref: T10282) exclusion test, and counted using a Countess automated cell counter (Invitrogen, Ref: C10228) at indicated time of treatment (FIG. 4a and Extended FIG. 8a/d/f).

H3K27me3, EZH2 = target: T1, H3K27me3, EZH2 (Homo sapiens, UniProt Q15910); experiment: Western blotting of EZH2i-treated cells; format: cell-based; details: prior to chemotherapy treatment
T1 construct: endogenous in cells; host or cells: MDA-MB-468, HCC38 or BT20
T1 sequence (Q15910 whole entry): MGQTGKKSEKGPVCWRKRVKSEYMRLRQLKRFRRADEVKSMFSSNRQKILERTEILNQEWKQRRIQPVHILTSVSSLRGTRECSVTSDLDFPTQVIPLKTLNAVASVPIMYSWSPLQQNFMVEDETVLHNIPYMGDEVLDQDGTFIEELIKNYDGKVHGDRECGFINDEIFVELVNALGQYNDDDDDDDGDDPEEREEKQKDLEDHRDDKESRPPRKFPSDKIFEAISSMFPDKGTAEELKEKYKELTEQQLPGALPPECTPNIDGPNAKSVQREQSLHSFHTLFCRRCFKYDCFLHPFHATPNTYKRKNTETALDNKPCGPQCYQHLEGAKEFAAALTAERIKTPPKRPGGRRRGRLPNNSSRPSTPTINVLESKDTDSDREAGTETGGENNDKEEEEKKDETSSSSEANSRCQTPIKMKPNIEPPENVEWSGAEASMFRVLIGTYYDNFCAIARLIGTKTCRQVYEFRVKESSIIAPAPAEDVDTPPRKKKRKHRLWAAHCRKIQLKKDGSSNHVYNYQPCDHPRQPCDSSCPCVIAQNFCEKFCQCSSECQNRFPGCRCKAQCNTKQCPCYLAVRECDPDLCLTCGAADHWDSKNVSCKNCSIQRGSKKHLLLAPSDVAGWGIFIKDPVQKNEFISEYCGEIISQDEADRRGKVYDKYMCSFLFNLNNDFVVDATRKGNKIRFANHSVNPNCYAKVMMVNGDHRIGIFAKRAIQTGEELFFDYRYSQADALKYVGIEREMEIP
T1 sequence (O75530 whole entry partner): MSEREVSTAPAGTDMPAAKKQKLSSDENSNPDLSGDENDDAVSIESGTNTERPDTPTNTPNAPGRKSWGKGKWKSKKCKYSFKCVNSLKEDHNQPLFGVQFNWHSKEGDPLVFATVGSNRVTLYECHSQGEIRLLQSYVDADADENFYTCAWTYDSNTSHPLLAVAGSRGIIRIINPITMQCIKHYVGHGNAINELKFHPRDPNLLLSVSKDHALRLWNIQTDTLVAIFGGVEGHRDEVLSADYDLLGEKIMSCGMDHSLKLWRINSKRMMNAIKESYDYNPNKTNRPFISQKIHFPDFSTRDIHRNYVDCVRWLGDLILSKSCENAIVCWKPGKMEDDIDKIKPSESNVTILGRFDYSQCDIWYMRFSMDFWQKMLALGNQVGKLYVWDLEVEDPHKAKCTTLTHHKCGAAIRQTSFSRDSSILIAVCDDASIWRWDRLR
T1 sequence (Q15022 whole entry partner): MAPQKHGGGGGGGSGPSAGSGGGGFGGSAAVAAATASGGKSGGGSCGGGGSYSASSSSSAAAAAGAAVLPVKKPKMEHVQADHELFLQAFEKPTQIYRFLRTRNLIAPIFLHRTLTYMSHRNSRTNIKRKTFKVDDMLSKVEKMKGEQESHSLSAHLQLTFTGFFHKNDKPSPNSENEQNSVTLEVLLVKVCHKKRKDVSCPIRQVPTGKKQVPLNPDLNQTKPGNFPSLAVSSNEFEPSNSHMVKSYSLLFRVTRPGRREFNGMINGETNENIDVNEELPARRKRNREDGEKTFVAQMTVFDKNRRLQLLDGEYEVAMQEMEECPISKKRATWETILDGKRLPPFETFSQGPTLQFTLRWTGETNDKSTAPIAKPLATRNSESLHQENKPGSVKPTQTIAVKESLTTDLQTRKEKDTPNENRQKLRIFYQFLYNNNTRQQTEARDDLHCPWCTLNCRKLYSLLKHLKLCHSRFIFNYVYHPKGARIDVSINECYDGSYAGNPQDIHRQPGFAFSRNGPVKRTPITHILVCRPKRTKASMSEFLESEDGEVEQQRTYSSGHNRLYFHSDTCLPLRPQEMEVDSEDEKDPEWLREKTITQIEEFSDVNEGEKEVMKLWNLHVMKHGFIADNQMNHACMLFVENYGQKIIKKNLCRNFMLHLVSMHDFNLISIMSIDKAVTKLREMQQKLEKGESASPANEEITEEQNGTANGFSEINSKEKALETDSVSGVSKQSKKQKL
Method: Western blotting. In Extended FIG. 8b/e/g, DMSO- and EZH2i-treated cells were lysed at 95° C. for 10 minutes in Laemmli buffer (50 mM Tris-HCl [pH 6.8], 2% SDS, 5% glycerol, 2 mM DTT, 2.5 mM EDTA, 2.5 mM EGTA, 4 mM Sodium Orthovanadate, 20 mM Sodium Fluoride, protease inhibitors, phosphatase inhibitors) and proteins concentrations were measured using a Pierce BCA protein Assay Kit (Thermo Fisher Scientific, Ref: 23225/23227). 10 μg of proteins were then separated on a 4-15% Mini-PROTEAN TGX Stain-Free Gel (Bio-Rad, Ref: 4568085) at 160V. After transfer, the membrane was blocked for 1 h at room temperature in PBS pH 7.4 containing 0.1% Tween-20 and 1% milk (Regilait). Incubation anti-H3K27me3 (Dilution: 1:2000, Cell Signaling, Ref: 9733) or EZH2 (Dilution: 1:2000, Cell Signaling, Ref: 5246) or Tubulin (Dilution: 1:1000, Thermo Fisher Scientific, Ref: 31460) primary antibodies diluted in PBS pH 7.4, 0.1% Tween-20 were performed at 4° C. overnight.

tumors in mice = experiment: Capecitabine and GSK-J4 treatment of mice, tumor volume and disease-free survival; format: in vivo
Method: FIG. 5c: Five mice were treated intraperitoneally with DMSO, five mice were treated intraperitoneally with GSK-J4 alone at a dose of 50 mg/kg, 5 d/week for 25 days. Twenty-five mice were treated orally with Capecitabine at a dose of 540 mg/kg, 5 d/week for 36 days and twenty-five mice were co-treated with Capecitabine and GSK-J4 for 36 days. Tumor volumes (mm3) were measured to follow recurrence. FIG. 5d: Disease-free survival was defined as the number of days between the observation of a complete response (relative tumor volume RTV compared to volume at onset of treatment<0.2) after the first round of Capecitabine treatment, and the appearance of a recurrent tumor (RTV>3). Statistical analysis was performed using a log-rank test.

BT20 and HCC38 = experiment: Colony forming assay, 5-FU with KDM6A/Bi, additional TNBC cell lines; format: cell-based, human; details: BT20 and HCC38, 5-FU
Method: as §1, with “serum. All cell lines were cultured in a humidified 5% CO2 atmosphere at 37° C., and were tested as mycoplasma negative.” for “serum.”
(§2) Colony forming assay. TBNC cells were plated in 6 multi-well plates at a density of 200,000 cells per well and treated with the indicated drugs for 60 days (MDA-MB-468, FIG. 5a/b and Extended FIG. 9b) or 56 days (BT20) or 50 days (HCC38) (Extended FIG. 9). Cultures were incubated in humidified 37° C. incubators with an atmosphere of 5% CO2 in air, and treated plates were monitored for growth using a microscope. At the time of maximum foci formation, colony formation was evaluated after a staining with 0.5% Crystal Violet (Sigma, ref: C 3886).

MDA-MB-468 [5] = experiment: Colony forming assay and persister cell count, 5-FU with KDM6A/Bi; format: cell-based, human
Method: as §1, with “serum. All cell lines were cultured in a humidified 5% CO2 atmosphere at 37° C., and were tested as mycoplasma negative.” for “serum.”
as §2

SMILES: O=c1[nH]cc(F)c(=O)[nH]1 [5-FU, Fluorouracil]
- IC50 to 5-FU of resistant cells relative to untreated population [1]: over 4 fold
- cells surviving drug insult (MDA-MB-468 [2]; MDA-MB-468, 5-FU, after 3 weeks): 0.01 % of the initial population
- time until surviving cells started proliferating again under chemotherapy (MDA-MB-468 [2]; MDA-MB-468 persister cells under 5-FU): 10 to 15 days

SMILES: CCCCCOC(=O)Nc1nc(=O)n([C@@H]2O[C@H](C)[C@@H](O)[C@H]2O)cc1F [Capecitabine]
- tumor response to first round of chemotherapy [3]: mice displayed a pathological complete response (pCR), but tumors eventually recurred

- correlation scores between lineage frequencies in 5-FU and DMSO treated population (MDA-MB-468 cells): increased correlation scores
- EZH2 protein levels (H3K27me3, EZH2): without perturbing EZH2 protein levels
- H3K27me3 level (H3K27me3, EZH2): erasing H3K27me3
SMILES: CC[C@H](C)n1cc(C)c2c(C(=O)NCc3c(C)cc(C)[nH]c3=O)cc(-c3ccc(N4CCNCC4)nc3)cc21 [EZH2i-2]
- number of persister cells [4]: increased the number of persister cells

SMILES: CCOC(=O)CCNc1cc(N2CCc3ccccc3CC2)nc(-c2ccccn2)n1 [GSK-J4]
- toxicity for the mice (tumors in mice; GSK-J4 50 mg/kg intraperitoneally): nor was toxic for the mice
- tumor progression in absence of chemotherapy (tumors in mice; GSK-J4 alone, 50 mg/kg intraperitoneally): did not inhibit tumor progression
- delay to recurrence (disease-free survival) (tumors in mice; in combination with Capecitabine versus Capecitabine alone, n=25 each, p=4.0e-2): significantly increased the delay to recurrence
- confirmation of KDM6i effects on persister cells (BT20 and HCC38): confirmed
- effect when administered once persister cells have emerged (MDA-MB-468 [5]; added after onset of 5-FU rather than in combination): inefficient
- number of persisters at day 21 (MDA-MB-468 [5]; co-treatment with 5-FU): decrease in the number of persisters
- growth of persister cells under 5-FU at day 60 (MDA-MB-468 [5]; co-treatment with 5-FU, colony forming assay): completely abolished the growth of persister cells
- effect on untreated cancer cells (MDA-MB-468 [5]; without 5-FU): no effect on untreated cancer cells

- correlation scores between lineage frequencies in 5-FU and DMSO treated population (MDA-MB-468 cells): no effect on lineage frequencies
SMILES: CCCc1cc(C)n(C)c(=O)c1CN(C)C(=O)c1cc(-c2ccc(N3CCN(C(C)C)CC3)nc2)cc2c1cnn2C(C)C [UNC240034]
- number of persister cells [4]: no effect
